What was measured:
[1] = tested on: lipoprotein lipase (LPL) and hepatic lipase (HL); assay: Heparin-releasable TAG hydrolase activity in post-heparin plasma; format: biochemical; settings: NG-497 100 µM, radiolabeled triolein
Description: (§1) Fig. S3: Investigation of off-target effects of NG-497 on structurally and functionally related lipid hydrolases. (a) PNPLA1-dependent formation of acylceramides was monitored in a cell-based assay in HEK293T cells. Experiments were performed in the presence or absence of NG-497 (40 µM) and the non-selective lipase inhibitor Orlistat (40 µM). Orlistat, but not NG-497, inhibited PNPLA1/CGI-58-dependent ω-O-acylceramide formation. (b-h) Enzymes were overexpressed in Expi293 cells and cell lysates were used as source of enzymatic activity. […] Experiments were performed in the presence or absence of NG-497 (100 µM) and the formation of reaction products was monitored. […]
(§2) Data were calculated relative to the basal activity detected in LacZ-transfected controls. […]
(§3) LPL activity was inhibited using an anti-LPL antibody. All data are presented as mean ± S.D. Statistical significance was determined via ANOVA followed by Bonferroni post hoc test ( ***, p < 0.001). […]
(§4) Released free fatty acids were quantified via NEFA C kit (Fujifilm Wako Chemicals, Neuss, Germany) and release of p-nitrophenol was measured at 405 nm. […] Cellular ω-O-acylceramide formation was monitored using [1-14C]linoleic acid as tracer. […] The activity of purified human pancreatic lipase (MilliporeSigma #SRE0028) was determined as previously described7 in the presence or absence of NG-497 (100µM) or Orlistat (20 µM). […]

PNPLA1 = target: T1, PNPLA1 (Homo sapiens, UniProt Q8N8W4); assay: PNPLA1-dependent ω-O-acylceramide formation in HEK293T cells; format: cell-based; settings: NG-497 40 µM, Orlistat 40 µM
T1 construct: expressed in transfected cells; host or cells: HEK293T cells
Description: as §1, §2, §3, §4

T1 sequence (Q8N8W4 whole entry): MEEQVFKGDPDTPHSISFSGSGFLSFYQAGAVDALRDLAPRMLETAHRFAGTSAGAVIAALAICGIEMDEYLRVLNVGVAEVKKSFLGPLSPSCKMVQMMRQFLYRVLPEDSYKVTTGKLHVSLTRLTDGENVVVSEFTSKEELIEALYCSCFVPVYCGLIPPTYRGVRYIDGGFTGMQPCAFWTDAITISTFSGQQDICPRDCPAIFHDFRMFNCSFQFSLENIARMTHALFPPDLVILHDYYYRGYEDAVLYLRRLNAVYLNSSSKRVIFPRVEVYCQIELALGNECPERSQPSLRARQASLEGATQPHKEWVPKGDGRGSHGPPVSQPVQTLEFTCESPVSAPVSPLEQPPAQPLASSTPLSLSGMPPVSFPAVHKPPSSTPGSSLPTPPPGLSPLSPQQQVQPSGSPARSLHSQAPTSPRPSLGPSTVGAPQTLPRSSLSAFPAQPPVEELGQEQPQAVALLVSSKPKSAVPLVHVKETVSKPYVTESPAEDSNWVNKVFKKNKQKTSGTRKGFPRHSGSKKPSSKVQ

Question: Which “inhibition of heparin-releasable TAG hydrolase activity in human serum” value [1] does the source give for `CCOc1ccc(-c2cc(OC)cc(C(=O)OC(C)C)n2)cc1` [NG-497] here?
Answer: did not observe inhibition

Question: What about the “PNPLA1/CGI-58-dependent ω-O-acylceramide formation” value (PNPLA1) of the same compound?
Answer: not affected

Source: paper PMC9011347, “Small-Molecule Inhibitors Targeting Lipolysis in Human Adipocytes” (Journal of the American Chemical Society, 2022)
